Experiments:
[1] = biological target: human HSV DNA polymerase UL30 (Human herpesvirus 1 (strain 17) (HHV-1) (Human herpes simplex virus 1), UniProt P04293); experiment: HSV polymerase biochemical assay (molecular beacon-based)
In short: (§1)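 Full-length wild-type N-terminal MBP-fusion polymerases from sf9 cells were used at 100 pM (CMV) or 625 pM (HSV) in Tris pH 7.5, 10 mM MgCl2, and preincubated with inhibitor for 30 min at RT. Reactions with 1.25 uM each dNTP, 200 nM primer and 100 nM molecular beacon ran 60 min (CMV) or 20 min (HSV) at RT. Fluorescence was read at 480/535 nm and IC50 derived.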

[2] = biological target: human CMV DNA polymerase UL54 (Human cytomegalovirus (strain AD169) (HHV-5) (Human herpesvirus 5), UniProt P08546); experiment: CMV polymerase biochemical assay (molecular beacon-based)
In short: as §1

[3] = test system: Luciferase-encoding HCMV, AD169 strain; experiment: CMV Luciferase assay (cellular herpesvirus replication); format: cell-based; conditions: Human betaherpesvirus 5, AD169, read-out: CMV-Luc Cellular EC50
In short: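 Reporter HCMV AD169 with luciferase driven by late pp28 promoter, so signal requires viral DNA replication; NN-NHDF fibroblasts in 2% FBS medium, compound (0.0159–50 or 0.00318–10 μM, 0.5% DMSO) added 1 h before infection at MOI 1. Luminescence read 72 hpi; EC50 from 4-parameter fit of control-normalized %.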

O=C(NCc1ccc(Cl)cc1)c1ccc2n(c1=O)CCN(CC1(S(=O)(=O)C3CCOCC3)CC1)C2=O [Example 105-1, N-(4-chlorobenzyl)-1,6-dioxo-2-((1-((tetrahydro-2H-pyran-4-yl)sulfonyl)cyclopropyl)methyl)-2,3,4,6-tetrahydro-1H-pyrido[1,2-a]pyrazine-7-carboxamide]
IC50 [1]: 39.7 nM
IC50 [2]: 1.5 nM
EC50 [3]: 50.1 nM

N#Cc1ccc(CNC(=O)c2ccc3n(c2=O)CCN(CC2(S(=O)(=O)C4CCOCC4)CC2)C3=O)cc1 [Example 105-2]
IC50 [1]: 64.3 nM
IC50 [2]: 2.5 nM
EC50 [3]: 178 nM

CC(C)(C)[S+]([O-])C1(CN2CCn3c(ccc(C(=O)NCc4ccc(C#N)cc4)c3=O)C2=O)CC1 (stereo not drawn) [Example 106, 2-((1-(tert-Butylsulfinyl)cyclopropyl)methyl)-N-(4-cyanobenzyl)-1,6-dioxo-2,3,4,6-tetrahydro-1H-pyrido[1,2-a]pyrazine-7-carboxamide]
IC50 [1]: 972 nM
IC50 [2]: 33.4 nM
EC50 [3]: 1120 nM

O=C(NCc1ccc(Cl)cc1)c1ccc2n(c1=O)CCN(CC1(S(=O)(=O)CC3CC3)CC1)C2=O [Example 107-1, N-(4-chlorobenzyl)-2-((1-((cyclopropylmethyl)sulfonyl)cyclopropyl)methyl)-1,6-dioxo-2,3,4,6-tetrahydro-1H-pyrido[1,2-a]pyrazine-7-carboxamide]
IC50 [1]: 61.6 nM
IC50 [2]: 1.9 nM
EC50 [3]: 111 nM

N#Cc1ccc(CNC(=O)c2ccc3n(c2=O)CCN(CC2(S(=O)(=O)CC4CC4)CC2)C3=O)cc1 [Example 107-2]
IC50 [1]: 150 nM
IC50 [2]: 2.5 nM
EC50 [3]: 200 nM

N#Cc1ccc(CNC(=O)c2ccc3n(c2=O)CCN(CC2(S(=O)(=O)CC4CC4)CC2)C3=O)cc1F [Example 107-3]
IC50 [1]: 72.6 nM
IC50 [2]: 2.2 nM
EC50 [3]: 174 nM

CC1(CS(=O)(=O)C2(CN3CCn4c(ccc(C(=O)NCc5ccc(C#N)c(F)c5)c4=O)C3=O)CC2)CC1 [Example 109, N-(4-cyano-3-fluorobenzyl)-2-((1-(((1-methylcyclopropyl)methyl)sulfonyl)cyclopropyl)methyl)-1,6-dioxo-1,3,4,6-tetrahydro-2H-pyrido[1,2-a]pyrazine-7-carboxamide]
IC50 [1]: 121 nM
IC50 [2]: 3.2 nM
EC50 [3]: 112 nM

N#CC1(CS(=O)(=O)C2(CN3CCn4c(ccc(C(=O)NCc5ccc(Cl)cc5)c4=O)C3=O)CC2)CC1 [Example 110, N-(4-chlorobenzyl)-2-((1-(((1-cyanocyclopropyl)methyl)sulfonyl)cyclopropyl)methyl)-1,6-dioxo-1,3,4,6-tetrahydro-2H-pyrido pyrazine-7-carboxamide]
IC50 [1]: 33.5 nM
IC50 [2]: 1.9 nM
EC50 [3]: 81.7 nM

N#Cc1ccc(CNC(=O)c2ccc3n(c2=O)CCN(CC2(S(=O)(=O)CC4(C#N)CC4)CC2)C3=O)cc1 [Example 111]
IC50 [1]: 59.5 nM
IC50 [2]: 3.6 nM
EC50 [3]: 433 nM

N#Cc1ccc(CNC(=O)c2ccc3n(c2=O)CCN(CC2(S(=O)(=O)CC4(C#N)CC4)CC2)C3=O)cc1F [Example 112]
IC50 [1]: 44.1 nM
IC50 [2]: 2.2 nM
EC50 [3]: 187 nM

CS(=O)(=O)N(CCN1CCn2c(ccc(C(=O)NCc3ccc(Cl)cc3)c2=O)C1=O)C1CC1 [Example 115, N-(4-chlorobenzyl)-2-(2-(N-cyclopropylmethylsulfonamido)ethyl)-1,6-dioxo-2,3,4,6-tetrahydro-1H-pyrido[1,2-a]pyrazine-7-carboxamide]
IC50 [1]: 13600 nM
IC50 [2]: 747 nM
EC50 [3]: 15000 nM

O=C(NCc1ccc(Cl)cc1)c1ccc2n(c1=O)CCN(CCO)C2=O [Example 116, N-(4-chlorobenzyl)-2-(2-hydroxyethyl)-1,6-dioxo-2,3,4,6-tetrahydro-1H-pyrido[1,2-a]pyrazine-7-carboxamide]
IC50 [1]: 14100 nM
IC50 [2]: 2140 nM
EC50 [3]: 24700 nM

CS(=O)(=O)CCN1CCn2c(c(Br)cc(C(=O)NCc3ccc(Cl)cc3)c2=O)C1=O [Example 117, 9-bromo-N-(4-chlorobenzyl)-2-(2-(methylsulfonyl)ethyl)-1,6-dioxo-1,3,4,6-tetrahydro-2H-pyrido[1,2-a]pyrazine-7-carboxamide]
IC50 [1]: 577 nM
IC50 [2]: 285 nM
EC50 [3]: 1440 nM

O=C(NCc1ccc(Cl)cc1)c1cc(Br)c2n(c1=O)CCN(CCN1CCCS1(=O)=O)C2=O [Example 124, 9-bromo-N-(4-chlorobenzyl)-2-(2-(1,1-dioxidoisothiazolidin-2-yl)ethyl)-1,6-dioxo-1,3,4,6-tetrahydro-2H-pyrido[1,2-a]pyrazine-7-carboxamide]
IC50 [1]: 310 nM
IC50 [2]: 83.1 nM
EC50 [3]: 874 nM

CS(=O)(=O)CCN1CCn2c(c(C#N)cc(C(=O)NCc3ccc(Cl)cc3)c2=O)C1=O [Example 125, N-(4-chlorobenzyl)-9-cyano-2-(2-(methylsulfonyl)ethyl)-1,6-dioxo-1,3,4,6-tetrahydro-2H-pyrido[1,2-a]pyrazine-7-carboxamide]
IC50 [1]: 1010 nM
IC50 [2]: 566 nM
EC50 [3]: 20200 nM

CS(=O)(=O)CCCN1CCn2c(c(C#N)cc(C(=O)NCc3ccc(Cl)cc3)c2=O)C1=O [Example 126]
IC50 [1]: 1970 nM
IC50 [2]: 1200 nM
EC50 [3]: 50000 nM

CN(CCN1CCn2c(c(C#N)cc(C(=O)NCc3ccc(Cl)cc3)c2=O)C1=O)S(C)(=O)=O [Example 127]
IC50 [1]: 4790 nM
IC50 [2]: 545 nM
EC50 [3]: 19900 nM

CN(CCN1CCn2c(c(C3CC3)cc(C(=O)NCc3ccc(Cl)cc3)c2=O)C1=O)S(C)(=O)=O [Example 128, N-(4-chlorobenzyl)-9-cyclopropyl-2-(2-(N-methylmethylsulfonamido)ethyl)-1,6-dioxo-1,3,4,6-tetrahydro-2H-pyrido[1,2-a]pyrazine-7-carboxamide]
IC50 [1]: 2560 nM
IC50 [2]: 153 nM
EC50 [3]: 2380 nM

CS(=O)(=O)C1(CN2CCn3c(c(C4CC4)cc(C(=O)NCc4ccc(Cl)cc4)c3=O)C2=O)CC1 [Example 132]
IC50 [1]: 138 nM
IC50 [2]: 3.1 nM
EC50 [3]: 70.7 nM

CCc1cc(C(=O)NCc2ccc(Cl)cc2)c(=O)n2c1C(=O)N(CCN(C)S(C)(=O)=O)CC2 [Example 134, N-(4-chlorobenzyl)-9-ethyl-2-(2-(N-methylmethylsulfonamido)ethyl)-1,6-dioxo-1,3,4,6-tetrahydro-2H-pyrido[1,2-a]pyrazine-7-carboxamide]
IC50 [1]: 2120 nM
IC50 [2]: 268 nM
EC50 [3]: 2870 nM

CCc1cc(C(=O)NCc2ccc(Cl)cc2)c(=O)n2c1C(=O)N(CC1(S(C)(=O)=O)CC1)CC2 [Example 136]
IC50 [1]: 136 nM
IC50 [2]: 2.5 nM
EC50 [3]: 86.7 nM

CN(CCN1CCn2c(c(CO)cc(C(=O)NCc3ccc(Cl)cc3)c2=O)C1=O)S(C)(=O)=O [Example 137, N-(4-chlorobenzyl)-9-(hydroxylmethyl)-2-(2-(N-methylmethylsulfonamido)ethyl)-1,6-dioxo-1,3,4,6-tetrahydro-2H-pyrido[1,2-a]pyrazine-7-carboxamide]
IC50 [1]: 3900 nM
IC50 [2]: 348 nM
EC50 [3]: 19700 nM

CS(=O)(=O)CCCN1CCn2c(c(CO)cc(C(=O)NCc3ccc(Cl)cc3)c2=O)C1=O [Example 139]
IC50 [1]: 3580 nM
IC50 [2]: 989 nM
EC50 [3]: 50000 nM

CN(CCN1CCn2c(c(CF)cc(C(=O)NCc3ccc(Cl)cc3)c2=O)C1=O)S(C)(=O)=O [Example 140, N-(4-chlorobenzyl)-9-(fluoromethyl)-2-(2-(N-methylmethylsulfonamido)ethyl)-1,6-dioxo-1,3,4,6-tetrahydro-2H-pyrido[1,2-a]pyrazine-7-carboxamide]
IC50 [1]: 4260 nM
IC50 [2]: 242 nM
EC50 [3]: 2220 nM

O=C(NCc1ccc(Cl)cc1)c1cc(CF)c2n(c1=O)CCN(CCN1CCCS1(=O)=O)C2=O [Example 141]
IC50 [1]: 328 nM
IC50 [2]: 72.8 nM
EC50 [3]: 1650 nM

CN(CCN1CCn2c(c(C(F)F)cc(C(=O)NCc3ccc(Cl)cc3)c2=O)C1=O)S(C)(=O)=O [Example 143, N-(4-chlorobenzyl)-9-(difluoromethyl)-2-(2-(N-methylmethylsulfonamido)ethyl)-1,6-dioxo-1,3,4,6-tetrahydro-2H-pyrido[1,2-a]pyrazine-7-carboxamide]
IC50 [1]: 6310 nM
IC50 [2]: 649 nM
EC50 [3]: 30600 nM

CS(=O)(=O)CCCN1CCn2c(c(C(F)F)cc(C(=O)NCc3ccc(Cl)cc3)c2=O)C1=O [Example 145]
IC50 [1]: 6820 nM
IC50 [2]: 1410 nM
EC50 [3]: 30200 nM

O=C(NCc1ccc(Cl)cc1)c1cc(C(F)(F)F)c2n(c1=O)CCN(CCN1CCCS1(=O)=O)C2=O [Example 147]
IC50 [1]: 5050 nM
IC50 [2]: 558 nM
EC50 [3]: 21400 nM

Cc1cc(C(=O)NCc2ccc(Cl)cc2)c(=O)n2c1C(=O)N(CCN(C)S(C)(=O)=O)CC2 [Example 148, N-(4-chlorobenzyl)-9-methyl-2-(2-(N-methylmethylsulfonamido)ethyl)-1,6-dioxo-1,3,4,6-tetrahydro-2H-pyrido[1,2-a]pyrazine-7-carboxamide]
IC50 [1]: 1510 nM
IC50 [2]: 181 nM
EC50 [3]: 1660 nM

Cc1cc(C(=O)NCc2ccc(Cl)cc2)c(=O)n2c1C(=O)N(CC1(N(C)S(C)(=O)=O)CC1)CC2 [Example 149]
IC50 [1]: 2200 nM
IC50 [2]: 112 nM
EC50 [3]: 7910 nM

Cc1cc(C(=O)NCc2ccc(Cl)cc2)c(=O)n2c1C(=O)N(CCCS(C)(=O)=O)CC2 [Example 152]
IC50 [1]: 1670 nM
IC50 [2]: 653 nM
EC50 [3]: 9190 nM

Cc1cc(C(=O)NCc2ccc(Cl)cc2)c(=O)n2c1C(=O)N(CCS(C)(=O)=O)CC2 [Example 153]
IC50 [1]: 388 nM
IC50 [2]: 118 nM
EC50 [3]: 626 nM

Source: patent US12466821B2 (Novartis AG, priority 2018, dated 2025)
